Measurements reported in patent publication US20190060300A1, “Self-Emulsifying Compositions of CB2 Receptor Modulators” (priority 2016, published 2019).

Experiments:
[1] = target: CB2 receptor (Homo sapiens, UniProt P34972); settings: Chicca A. et al; cited from earlier work
[2] = according to its MSDS; cited from earlier work
[3] = oral and topical administration, Chaves 2008; cited from earlier work
[4] = Dissolution of MH in the SEDDS vehicle of Example 1; assay type: physicochemical
Protocol: Preparation of MH in SEDDS vehicle. • 1. The SEDDS vehicle of the oral composition of Example 1 was warmed up separately to 42° C. for 13 min. In order to prepare about 5% (g/vol) MH solution, the vehicle (380 mg) was added to MH (22.8 mg) directly and vortexed for 60 sec to obtain the oral composition. • 2. The SEDDS vehicle of the oral composition of Example 1 was warmed up separately to 52° C. for 15 min. In order to prepare about 5% (g/vol) MH solution, the vehicle (380.18 mg) was added to MH (21.2 mg) directly and vortexed for 100 sec to obtain the oral composition. Then the solution was warmed up to 50° C. for 10 min. Then the solution was warmed up to 57° C. for 13 min and vortexed for 180 sec. • 3. The SEDDS vehicle of the oral composition of Example 1 was warmed up separately to 55° C. for 15 min. In order to prepare about 1% (g/vol) MH solution, the vehicle (396 mg) was added to MH (4 mg) directly and vortexed for 60 sec to obtain the oral composition. Then the solution was warmed up to 55° C. for 10 min and vortexed for 60 sec.

[5] = Dissolution of MH in oral formulations V-01, V-02, V-03; assay type: physicochemical
Protocol: The solution of 4-O-methylhonokiol (MH) was prepared in oral formulation according to Table 1 below.

[6] = Sköld et al. 2006; cited from earlier work
[7] = system: mouse model of schizophrenia (PCP); assay: Forced-swimming test after oral BCP in SEDDS, PCP mouse model of schizophrenia; assay type: in vivo; settings: gavage twice a week for 3 weeks, adolescent mice
Protocol: (§1) The mouse model of schizophrenia was established.
(§2) Sterile double-distilled water (DDW) was warmed for […] in a pre-warmed thermobath (35-38° C.). The SEDDS vehicle of the oral composition of Example 1 was warmed up separately to 35-38° C. for 10 min. In order to prepare BCP (5 mg/ml) for a final dose of 10 mg/kg, BCP (5 mg) was added directly into the vehicle (1 ml) and vortexed for 1 min to obtain the oral composition. Then the warmed sterile DDW (4 ml) at 35-38° C. was added at a ratio of 1:5 oral composition: DDW dilution and the diluted composition was vortexed for 1 min. In order to prepare BCP for a final dose of 5 mg/kg, 500 μl of BCP at 5 mg/ml were diluted with 500 μl SEDDS vehicle (1:2 dilution). Then the warmed sterile DDW (4 ml) at 35-38° C. was added at a ratio of 1:5 oral composition. DDW dilution and the diluted composition was vortexed for 1 min.
(§3) BCP (5 mg/kg or 10 mg/kg in diluted self-emulsifying vehicle (Example 1)) was administered to adolescent mice (10 μl/g) by gavage twice a week (on Sunday and Wednesday) for 3 weeks (PND 43-62), a total of 6 injections. Control group and PCP-induced group received by gavage the oral formulation solution without the drug.
Training was conducted for 6 min a day before the test. […] On the test day, the total duration/frequency of immobility and climbing was counted every 2 minutes for 6 minutes. […]

[8] = system: mouse model of schizophrenia (PCP); assay: Open field test after oral BCP in SEDDS, PCP mouse model of schizophrenia; assay type: in vivo; settings: 5 mg/kg BCP in SEDDS oral formulation, gavage, adolescent mice
Protocol: as §1, §2
(§4) BCP (5 mg/kg or 10 mg/kg in diluted self-emulsifying vehicle (Example 1)) was administered to adolescent mice (10 μl/g) by gavage twice a week (on Sunday and Wednesday) for 3 weeks (PND 43-62), a total of 6 injections. […]
Each mouse was placed into the center of a clear open Plexiglas Chamber (40 cm*32 cm*30 cm) which its floor was divided to squares of 4 cm×5 cm. […] Ambulation behavior was manually counted for 8 min and data were collected in 2 min intervals.

[9] = system: mouse model of schizophrenia (PCP); assay: Social interaction test in a novel environment after oral BCP in SEDDS, PCP mouse model; assay type: in vivo; settings: 5 mg/kg BCP in SEDDS oral composition, gavage, adolescent mice
Protocol: as §1, §2, §4
Each mouse was placed in a novel cage together with a nonaggressive intruder mouse, of the same species, same sex and a similar age. The interaction between the two mice was recorded for 10 minutes with EthoVision software (Noldus). […]

[10] = Body weight of mice treated orally with BCP in SEDDS; assay type: in vivo; settings: 5 mg/kg BCP in SEDDS oral composition, gavage, adolescent mice
Protocol: as §3

[11] = system: mouse model of schizophrenia (PCP); assay: Forced-swimming test after oral BCP in canola oil, PCP mouse model of schizophrenia; assay type: in vivo, mice
Protocol: as §1
BCP was diluted in canola oil.
BCP (10 mg/kg diluted in canola oil) was administered to adolescent mice (PND 4362) by gavage twice a week (on Sunday and Wednesday) for 3 weeks, a total of 6 gavages. Control group and PCP-induced group received by gavage the oil vehicle.
Training was conducted for 6 min a day before the test. Each mouse was placed into a transparent glass cylinder filled with fresh water at 25° C. On the test day, the total dilation/frequency of immobility and climbing was counted every 2 minutes for 6 minutes. An increased immobility is an index of learning and habituation, therefore a positive behavioral adaptation with a stressful condition.

[12] = air exposed, after 5 weeks; cited from earlier work

CB2 receptor, sequence (P34972 whole entry): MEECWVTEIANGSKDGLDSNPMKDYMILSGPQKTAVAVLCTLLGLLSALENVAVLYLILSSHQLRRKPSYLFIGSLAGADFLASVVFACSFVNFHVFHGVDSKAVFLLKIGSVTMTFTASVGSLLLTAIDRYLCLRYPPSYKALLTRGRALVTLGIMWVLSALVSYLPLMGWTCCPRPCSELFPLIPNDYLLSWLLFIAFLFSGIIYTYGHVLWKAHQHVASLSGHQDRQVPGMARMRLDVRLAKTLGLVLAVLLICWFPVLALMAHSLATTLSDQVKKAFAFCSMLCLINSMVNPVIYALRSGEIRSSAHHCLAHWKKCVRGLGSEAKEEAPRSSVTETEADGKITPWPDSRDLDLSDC

Compound: C/C1=C\CC/C(C)=C/CC(C)(C)/C=C/C1 [alpha-humulene]
- CB2 receptor binding [1]: inactivity
- irritancy [2]: skin, eyes and respiratory irritant
- absorption [3]: rapid onset and relatively good absorption

Compound: C=CCc1ccc(O)c(-c2ccc(OC)c(CC=C)c2)c1 [MH, 4-O-methylhonokiol]
- dissolution of MH in SEDDS vehicle ([4]; about 1% (g/vol) MH, solution warmed up to 55° C. for 10 min, vortexed 60 sec): dissolved
- dissolution of MH in SEDDS vehicle ([4]; about 1% (g/vol) MH, vehicle warmed to 55° C., vortexed 60 sec): did not dissolve
- dissolution of MH in SEDDS vehicle ([4]; about 5% (g/vol) MH, solution warmed up to 50° C. for 10 min): did not dissolve
- dissolution of MH in SEDDS vehicle ([4]; about 5% (g/vol) MH, solution warmed up to 57° C. for 13 min, vortexed 180 sec): dissolved
- dissolution of MH in SEDDS vehicle ([4]; about 5% (g/vol) MH, vehicle warmed to 42° C., vortexed 60 sec): did not dissolve
- dissolution of MH in SEDDS vehicle ([4]; about 5% (g/vol) MH, vehicle warmed to 52° C., vortexed 100 sec): did not dissolve
- dissolution of MH in oral formulation ([5]; in V-01): dissolved
- dissolution of MH in oral formulation ([5]; in V-02): dissolved
- dissolution of MH in oral formulation ([5]; in V-03): dissolved

Compound: C=C1CC[C@H]2O[C@]2(C)CC[C@@H]2[C@@H]1CC2(C)C [BCP oxide, Caryophyllene oxide]
- CB2 receptor binding [1]: inactivity
- allergenicity [6]: allergen

Compound: trans-(1R,9S)-8-methylene4,11,11 trimethylbicyclo[7.2.0)]undec-4-ene [BCP]
- effect of PCP in the forced-swim test ([7]; 5 mg/kg BCP in SEDDS oral formulation): reversed the effect of PCP
- effect of PCP in the forced-swim test ([7]; 10 mg/kg BCP in SEDDS oral formulation): reversed the effect of PCP
- effect of PCP on activity in the open field test [8]: reversed the effect of PCP
- effect of PCP in the social interaction test [9]: reversed the effect of PCP
- body weight [10]: did not affect their body weight
- effect of 5 mg/kg PCP on the frequency of immobility in the forced swim test ([11]; 10 mg/kg BCP in oil composition (canola oil), gavage twice a week for 3 weeks): did not reverse the effect
- reversing the frequency of climbing in the forced-swim test ([11]; BCP in oil, gavage): ineffective
- original compound consumed by oxidation [12]: ~50%
